Legend:
[1] = tested on: acute inflammatory oedema of the paws; assay: Rat's paw oedema test (carrageenin), inhibition of the increase in paw volume; format: in vivo; settings: po, 1 h, male rats, intragastral, one hour after carrageenin
Method: An acute inflammatory oedema of the paws was induced in male rats (100-120 g) by subplantar injection of 0.1 ml of 2% carrageenin (dissolved in aqueous 0.9% NaCl solution). The volume of the paws was measured with a volumetric paw measuring apparatus 1 hour and 4 hours after the carrageenin injection. The differences between the two measurements of the paws was calculated. The test substances were suspended in 1% tylose and administered intragastrally through a stomach tube one hour after the carrageenin injection. The control animals were only given the vehicle (1% tylose). The percentage inhibition of the increase in volume in the treated animals was obtained by a comparison with the untreated controls. The average inhibitory doses (ED50) were calculated by means of the regression curves.

leucocyte migration = assay: Leucocyte migration test (carrageenin-impregnated polyester sponge); format: in vivo; settings: male rats, 50 mg/kg i.g., given immediately after sponge implantation and after 5 and 21 hours
Method: 2. Leucocyte migration test
A polyester sponge impregnated with 2% carrageenin solution was implanted subcutaneously in the neck region in male rats (140-150 g) (see G. A. Higgs et al, Eur. J. Pharmacol. 66, 81 (1980), A. W. Ford-Hutchinson et al, J. Pharmacol. Methods 1, 3 (1978)). The sponges were removed after 24 hours. The leucocytes which had migrated in were washed out in a PBS solution (pH 7.4, 0.5% trypsin, 10 units/ml of heparin) at 37° C. for 30 minutes.
The sponges were then carefully pressed out and centrifuged (10 minutes, 500 revs/min). The leucocytes in the washing liquid were then counted. The test substances, which were taken up in 1% tylose, and the vehicle (1% tylose) were administered intragastrally with a stomach tube immediately after implantation of the sponge and after 5 hours and 21 hours. The percentage inhibition of leucocyte migration after administration of the test substances was compared with that of the controls. The average inhibitory doses (ED50) were calculated by means of the regression graphs.

[2] = tested on: PGE 2-synthesis and -release (cyclooxygenase); assay: Inhibition of PGE 2-synthesis and -release in vitro; format: cell-based
Text: (§1) 3. Inhibition of PGE 2- and LTC 4-synthesis and -release

[3] = tested on: LTC 4-synthesis and -release (lipoxygenase); assay: Inhibition of LTC 4-synthesis and -release in vitro; format: cell-based
Text: as §1

SMILES	ED50 [1]	Inhibition of leucocyte migration (control = 0%) (leucocyte migration)	further results
CN(C)C=NNc1nc2ccccc2s1 [Example 1, N^1-(benzothiazol-2-yl)-N^3,N^3-dimethylformamidrazone]	14 mg/kg	25%	PGE2 (% of controls) ([2]; at 10^-4): 29 % of controls; PGE2 (% of controls) ([2]; at 10^-5): 84 % of controls; PGE2 (% of controls) ([2]; at 10^-6): 99 % of controls; cyclooxygenase inhibition (in words) ([2]; conclusion from PGE2 test): cyclooxygenase inhibitor; LTC4 (% of controls) ([3]; at 10^-4): 51 % of controls; lipoxygenase inhibition (in words) ([3]; at 10^-4, conclusion from LTC4 test): lipoxygenase inhibition at 10^-4; LTC4 (% of controls) ([3]; at 10^-5): > 100 % of controls; LTC4 (% of controls) ([3]; at 10^-6): > 100 % of controls
CN(C)C=NN(C)c1nc2ccccc2s1 [Example 2, N^1-(benzothiazol-2-yl)-N^1,N^3,N^3-trimethylformamidrazone]	15 mg/kg		
CN(NC=O)c1nc2ccccc2s1 [Example 4, N^2-(benzothiazol-2-yl)-N^2-methyl-formhydrazide]	50 mg/kg	50%	
CCOC(C)=NNc1nc2ccccc2s1 [Example 5, N^2-(benzothiazol-2-yl)-ethyl-acetohydrazonate]	25 mg/kg	30%	
CC(=O)NNc1nc2ccc(C)cc2s1 [Example 6, N^2-(6-methylbenzothiazol-2-yl)-acetohydrazide]	50 mg/kg		
CC=NNc1nc2ccc(C)cc2s1 [Example 7, N-(6-methylbenzothiazol-2-yl)acetaldehydehydrazone]	25 mg/kg		
CC=NNc1nc2cc(Cl)ccc2s1 [Example 8]	~80 mg/kg		
